{
  "source": "patent US6200602A",
  "about": "“Composition for enhanced uptake of polar drugs from the colon” (priority 1995, dated 2001)",
  "origin": "cited, not measured here",
  "key": {"[1]": {"settings": "oral / gastrointestinal tract"}, "[2]": {"settings": "literature knowledge"}, "[3]": {"settings": "absorption enhancer in the gastrointestinal tract"}, "[4]": {"settings": "rat intestine; sodium caprate and sodium glycocholate as enhancers"}},
  "data": [
    {"compound": "C[C@H](CS)C(=O)N1CCC[C@H]1C(=O)O", "note": "[captopril]", "values": [
      {"measurement": "absorption when dosed orally", "setting": "[1]", "value": "poor or erratic absorption"}
    ]},
    {"compound": "CN/C(=N/CCSCc1nc[nH]c1C)NC#N", "note": "[cimetidine]", "values": [
      {"measurement": "absorption when dosed orally", "setting": "[1]", "value": "poor or erratic absorption"}
    ]},
    {"compound": "O=P(O)(O)C(Cl)(Cl)P(=O)(O)O", "note": "[clodronate]", "values": [
      {"measurement": "absorption when dosed orally", "setting": "[1]", "value": "poor or erratic absorption"}
    ]},
    {"compound": "CNC(=C[N+](=O)[O-])NCCSCc1ccc(CN(C)C)o1", "note": "[ranitidine]", "values": [
      {"measurement": "absorption when dosed orally", "setting": "[1]", "value": "poor or erratic absorption"}
    ]},
    {"compound": "CCCCCCCCCC(=O)[O-].[Na+]", "note": "[sodium caprate]", "values": [
      {"measurement": "absorption promoting effect", "setting": "[2]", "value": "can act as an absorption promoting agent"}
    ]},
    {"compound": "O=C(O)c1cc(=O)c2c(OCC(O)COc3cccc4oc(C(=O)O)cc(=O)c34)cccc2o1", "note": "[sodium cromoglycate]", "values": [
      {"measurement": "absorption when dosed orally", "setting": "[1]", "value": "poor or erratic absorption"}
    ]},
    {"compound": "C[C@H](CCC(=O)O)[C@H]1CC[C@H]2[C@@H]3CC[C@@H]4C[C@H](O)CC[C@]4(C)[C@H]3C[C@H](O)[C@]12C", "note": "[sodium deoxycholate]", "values": [
      {"measurement": "absorption promoting effect", "setting": "[2]", "value": "known to act as an absorption enhancer in the gastrointestinal tract"},
      {"measurement": "side effect and toxicity", "setting": "[3]", "value": "associated with potential side effect (diarrhoea) and toxicity"}
    ]},
    {"compound": "insulin: polypeptide drug", "values": [
      {"measurement": "preferred site for insulin absorption", "setting": "[4]", "value": "the ileum was the most preferred site for insulin absorption"}
    ]}
  ]
}
